Values of other authors in patent US20090269770A1, “METHODS FOR EVALUATION PROGNOSIS AND FOLLOW-UP OF DRUG TREATMENT OF PSYCHIATRIC DISEASES OR DISORDERS” (priority 2008, published 2009).

System: negative symptoms of schizophrenia
Conditions: non-serotonergic antidepressant add-on (Silver and Shmugliakov, 1998); cited from earlier work

SMILES: CNCCCC12CCC(c3ccccc31)c1ccccc12 [maprotaline]
- effect on negative symptoms: did not improve negative symptoms
